Test results taken from patent publication US8709719B2, “ZNF217 a new prognostic and predictive biomarker of recurrent invasive and metastatic phenotypes in breast cancer” (Centre Leon Berard, priority 2009, dated 2014).

How the values were obtained:
MVLN cells = test: Cell proliferation assay (BrdU) in MVLN cells; assay type: cell-based; conditions: 200 nM OH-Tam
Method: (§1) FIG. 13: Endocrine resistance is reversed in the presence of an siRNA-ZNF217 in OH-Tam-resistant CL6.7 cells. Total protein extracts from cell lines were analyzed by Western blotting with an anti-ZNF217. Expression of α-tubulin was used as an invariant control. (A) Western-blot analysis of ZNF217 in transfected MVLN and CL6.7 cells with either scrambled RNA or with an siRNA-ZNF217. (B) Cell proliferation (BrdU test) of transfected MVLN and CL6.7 cells with either scrambled RNA or siRNA-ZNF217, in the presence or the absence of 200 nM OH-Tam. This assay was performed in steroid-free medium. P-value (Student's t-test) was considered as significant when P<0.05.
(§2) MCF7 and MDA-MB-231 breast cancer cells were purchased from ATCC and grown according to recommendations in DMEM medium supplemented with 10% fetal bovine serum (Invitrogen, Cergy Pontoise, Paris). S30 cells and their MDA-MB-231 control cells have been previously described (Levenson et al., 2003). The cellular model of endocrine resistance (MVLN and CL6.7 cells) have been previously established and described (Demirpence et al., 1993).
(§3) Proliferating cells were analyzed using the Cell Proliferation ELISA, BrdU (colorimetric) Kit (Roche, Meylan, France). […]

CL6.7 cells = test: Cell proliferation assay (BrdU) in OH-Tam-resistant CL6.7 cells; assay type: cell-based; conditions: 200 nM OH-Tam
Method: as §1, §2, §3

Q: What does the source list for CC/C(=C(\c1ccc(O)cc1)c1ccc(OCCN(C)C)cc1)c1ccccc1 [OH-Tam, OH-Tamoxifen]?
A: effect of OH-Tam exposure on cell proliferation (MVLN cells; MVLN cells (OH-Tam-sensitive), steroid-free medium): cytostatic activity; sensitivity to endocrine therapy (cell proliferation) (MVLN cells; MVLN cells, OH-Tam exposure combined with ZNF217 knockdown (siRNA), P=0.001): increased sensitivity to endocrine therapy; effect of OH-Tam exposure on cell proliferation (CL6.7 cells; CL6.7 cells (OH-Tam-resistant), steroid-free medium): strong stimulation of CL6.7 cell proliferation; inhibition of cell proliferation (CL6.7 cells; CL6.7 cells, OH-Tam exposure combined with ZNF217 knocking-out (siRNA), P<10^-5): 35%
